Laboratory results: PubChem BioAssay AID2060612 (Molecular Pharmacology Branch, DTP, NCI, 2025)

Test system: 565232-114-T-J1-PDC complex spheroid viability
Test: Anticancer human tumor 565232-114-T-J1-PDC patient-derived bladder carcinoma cell line growth inhibition [CLK]
Settings: for IC50: curve of first compound; for viability, T/C: stronger effect = lower value
How it was run: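 Patient-derived tumor cells grown as complex spheroids with HUVEC endothelial cells and mesenchymal stem cells, treated with drug combinations. Concentrations descend in half-log steps from near clinical Cmax, or from 10 microM if Cmax unknown.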
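Note: spheroids exposed to compounds for 7 days before readout.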
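Throughout, for viability, T/C: 100% = DMSO vehicle wells with luminescence normalized to vehicle control.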

`CCCS(=O)(=O)Nc1ccc(F)c(C(=O)c2c[nH]c3ncc(-c4ccc(Cl)cc4)cc23)c1F` + CNC(=O)c1ccc(Nc2nc(OC3CCCC3)c3c(-c4ccc5nc(C)oc5c4)c[nH]c3n2)c(OC)c1 showed an IC50 (second compound 0.0316 µM) of 5980 nM, an IC50 (second compound 0.1 µM) of 455 nM and an IC50 (second compound 0.316 µM) of less than 31.6 nM. The IC50 (second compound 1 µM) was less than 31.6 nM, the IC50 (second compound 3.16 µM) was less than 31.6 nM and the IC50 (second compound 10 µM) was less than 31.6 nM. The viability, T/C (second compound 0.0316 µM, first compound 0.0316 µM) was 95.7%, the viability, T/C (second compound 0.0316 µM, first compound 0.1 µM) was 75.2% and the viability, T/C (second compound 0.0316 µM, first compound 0.316 µM) was 75.3%. For the same molecule, the viability, T/C (second compound 0.0316 µM, first compound 1 µM) was 96.2%, the viability, T/C (second compound 0.0316 µM, first compound 3.16 µM) was 110% and the viability, T/C (second compound 0.0316 µM, first compound 10 µM) was 17.2%. The viability, T/C (second compound 0.1 µM, first compound 0.0316 µM) was 56.5%, the viability, T/C (second compound 0.1 µM, first compound 0.1 µM) was 56.1% and the viability, T/C (second compound 0.1 µM, first compound 0.316 µM) was 50.7%. For the same molecule, the viability, T/C (second compound 0.1 µM, first compound 1 µM) was 46.6%, the viability, T/C (second compound 0.1 µM, first compound 3.16 µM) was 30.8% and the viability, T/C (second compound 0.1 µM, first compound 10 µM) was 9.67%. It also gave a viability, T/C (second compound 0.316 µM, first compound 0.0316 µM) of 36.1%, a viability, T/C (second compound 0.316 µM, first compound 0.1 µM) of 35.9% and a viability, T/C (second compound 0.316 µM, first compound 0.316 µM) of 32.9%. The viability, T/C (second compound 0.316 µM, first compound 1 µM) was 32.5%, the viability, T/C (second compound 0.316 µM, first compound 3.16 µM) was 26.3% and the viability, T/C (second compound 0.316 µM, first compound 10 µM) was 6.44%. For the same molecule, the viability, T/C (second compound 1 µM, first compound 0.0316 µM) was 23.7%, the viability, T/C (second compound 1 µM, first compound 0.1 µM) was 27.2% and the viability, T/C (second compound 1 µM, first compound 0.316 µM) was 26.4%. It also gave a viability, T/C (second compound 1 µM, first compound 1 µM) of 23.1%, a viability, T/C (second compound 1 µM, first compound 3.16 µM) of 16.4% and a viability, T/C (second compound 1 µM, first compound 10 µM) of 5.45%. It also gave a viability, T/C (second compound 3.16 µM, first compound 0.0316 µM) of 19.1%, a viability, T/C (second compound 3.16 µM, first compound 0.1 µM) of 20.5% and a viability, T/C (second compound 3.16 µM, first compound 0.316 µM) of 18.4%. It also gave a viability, T/C (second compound 3.16 µM, first compound 1 µM) of 18.8%, a viability, T/C (second compound 3.16 µM, first compound 3.16 µM) of 18.9% and a viability, T/C (second compound 3.16 µM, first compound 10 µM) of 4.02%. The viability, T/C (second compound 10 µM, first compound 0.0316 µM) was 20.4%, the viability, T/C (second compound 10 µM, first compound 0.1 µM) was 17.8% and the viability, T/C (second compound 10 µM, first compound 0.316 µM) was 18.1%. The viability, T/C (second compound 10 µM, first compound 1 µM) was 17.2%, the viability, T/C (second compound 10 µM, first compound 3.16 µM) was 11.6% and the viability, T/C (second compound 10 µM, first compound 10 µM) was 3.9%.
